Reference: patent publication US9145392B2, “Imidazole amines as modulators of kinase activity” (Merck Patent GmbH, priority 2011, dated 2015)

Assays:
[1] = biological target: P70S6K (T412E mutant) (Homo sapiens (Human), UniProt P23443, T412E); test: P70S6K enzyme assay; format: biochemical; settings: read-out: IC50 p70S6K
Outline: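 Phosphorylated product and substrate peptide separated by microfluidic capillary electrophoresis (Caliper LabChip 3000), product peaks resolving before substrate.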

[2] = biological target: His-AKT (Full Length) (Homo sapiens (Human), UniProt P31749); test: AKT enzyme assay; format: biochemical; settings: read-out: IC50 AKT
His-AKT (Full Length), sequence (P31749 whole entry): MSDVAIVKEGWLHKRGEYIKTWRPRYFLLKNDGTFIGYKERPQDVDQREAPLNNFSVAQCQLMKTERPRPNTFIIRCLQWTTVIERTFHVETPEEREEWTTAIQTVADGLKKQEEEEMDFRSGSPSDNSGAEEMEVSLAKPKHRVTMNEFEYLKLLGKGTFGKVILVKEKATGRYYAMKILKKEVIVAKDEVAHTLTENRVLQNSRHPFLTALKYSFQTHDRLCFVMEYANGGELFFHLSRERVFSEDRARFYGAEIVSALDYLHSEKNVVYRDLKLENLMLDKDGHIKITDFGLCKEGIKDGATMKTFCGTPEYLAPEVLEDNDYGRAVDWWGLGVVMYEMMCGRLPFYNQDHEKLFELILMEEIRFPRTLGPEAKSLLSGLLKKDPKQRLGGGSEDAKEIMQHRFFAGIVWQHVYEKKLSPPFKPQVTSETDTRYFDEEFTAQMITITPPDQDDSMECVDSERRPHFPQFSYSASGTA

P70S6K (T412E mutant), sequence (P23443 whole entry T412E): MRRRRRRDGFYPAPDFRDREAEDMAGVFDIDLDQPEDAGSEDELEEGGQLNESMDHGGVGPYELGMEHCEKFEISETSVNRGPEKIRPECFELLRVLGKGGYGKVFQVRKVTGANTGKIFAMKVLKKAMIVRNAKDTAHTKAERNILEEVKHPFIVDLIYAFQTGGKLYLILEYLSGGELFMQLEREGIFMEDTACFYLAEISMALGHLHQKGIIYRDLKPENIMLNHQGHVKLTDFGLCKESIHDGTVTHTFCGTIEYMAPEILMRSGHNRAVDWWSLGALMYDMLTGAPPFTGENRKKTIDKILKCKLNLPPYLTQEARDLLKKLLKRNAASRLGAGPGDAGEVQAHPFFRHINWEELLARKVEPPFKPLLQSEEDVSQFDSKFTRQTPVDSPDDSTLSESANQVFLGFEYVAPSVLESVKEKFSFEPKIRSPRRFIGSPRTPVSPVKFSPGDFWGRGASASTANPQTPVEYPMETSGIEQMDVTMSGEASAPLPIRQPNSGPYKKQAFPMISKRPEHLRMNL

IC50 [1] | IC50 [2] | SMILES
5.7 nM | 12 nM | Nc1ncnc(N2CCC(c3nc(-c4ccc(F)c(C(F)(F)F)c4)cn3CCN3CCC3)CC2)c1-c1ccc(C(=O)O)cc1 [Compound 224]
5.8 nM | 12 nM | Nc1ncnc(N2CCC(c3nc(-c4ccc(F)c(C(F)(F)F)c4)cn3CCN3CCCC3)CC2)c1-c1ccc(C(=O)O)cc1 [Compound 225]
1.3 nM | 1.7 nM | Nc1ncnc(N2CCC(c3nc(-c4ccc(F)c(F)c4)cn3CCN3CCCC3)CC2)c1Br [Compound 226]
1.4 nM | 2.9 nM | Nc1ncnc(N2CCC(c3nc(-c4ccc(F)cc4)cn3CCN3CCCC3)CC2)c1Br [Compound 227]
1.4 nM | 5.9 nM | Nc1ncnc(N2CCC(c3nc(-c4cccc(F)c4)cn3CCN3CCCC3)CC2)c1Br [Compound 228]
6.3 nM | 71 nM | Nc1ncnc(N2CCC(c3nc(-c4ccc(C(F)(F)F)c(F)c4)cn3CCN3CCCC3)CC2)c1Br [Compound 229]
2.1 nM | 4.1 nM | CCc1c(N)ncnc1N1CCC(c2nc(-c3ccc(F)c(C(F)(F)F)c3)cn2CCN2CCC2)CC1 [Compound 230]
3.6 nM | 46 nM | CCc1c(N)ncnc1N1CCC(c2nc(-c3cccc(F)c3)cn2CCN2CCCC2)CC1 [Compound 231]
2.3 nM | 20 nM | CCc1c(N)ncnc1N1CCC(c2nc(-c3ccc(F)cc3)cn2CCN2CCCC2)CC1 [Compound 232]
1.1 nM | 8.2 nM | CCc1c(N)ncnc1N1CCC(c2nc(-c3ccc(F)c(F)c3)cn2CCN2CCCC2)CC1 [Compound 233]
13 nM | 470 nM | CCc1c(N)ncnc1N1CCC(c2nc(-c3ccc(C(F)(F)F)c(F)c3)cn2CCN2CCCC2)CC1 [Compound 234]
10 nM | 1000 nM | Nc1ncnc(N2CCC(c3nc(-c4ccc(C(F)(F)F)c(F)c4)cn3CCN3CCCC3)CC2)c1Cl [Compound 235]
0.5 nM | 8.1 nM | Nc1ncnc(N2CCC(c3nc(-c4cccc(F)c4)cn3CCN3CCCC3)CC2)c1Cl [Compound 236]
0.8 nM | 3.3 nM | Nc1ncnc(N2CCC(c3nc(-c4ccc(F)cc4)cn3CCN3CCCC3)CC2)c1Cl [Compound 237]
0.9 nM | 3.2 nM | Nc1ncnc(N2CCC(c3nc(-c4ccc(F)c(F)c4)cn3CCN3CCCC3)CC2)c1Cl [Compound 238]
4.4 nM | 210 nM | C=Cc1c(N)ncnc1N1CCC(c2nc(-c3ccc(C(F)(F)F)c(F)c3)cn2CCN2CCCC2)CC1 [Compound 239]
0.9 nM | 21 nM | C=Cc1c(N)ncnc1N1CCC(c2nc(-c3cccc(F)c3)cn2CCN2CCCC2)CC1 [Compound 240]
2.9 nM | 16 nM | C=Cc1c(N)ncnc1N1CCC(c2nc(-c3ccc(F)cc3)cn2CCN2CCCC2)CC1 [Compound 241]
1.4 nM | 9.7 nM | C=Cc1c(N)ncnc1N1CCC(c2nc(-c3ccc(F)c(F)c3)cn2CCN2CCCC2)CC1 [Compound 242]
18 nM | 63 nM | Nc1cc(N2CCC(c3nc(-c4ccc(F)c(F)c4)cn3CCN3CCCC3)CC2)ncn1 [Compound 243]
25 nM | 210 nM | Nc1cc(N2CCC(c3nc(-c4cccc(F)c4)cn3CCN3CCCC3)CC2)ncn1 [Compound 244]
5.3 nM | 64 nM | CCc1c(N)ncnc1N1CCC(c2nc(-c3ccc(C(F)(F)F)c(F)c3)cn2CCN2CC[C@H](F)C2)CC1 [Compound 245]

The remaining lines, values behind:

SMILES | IC50 [1] | IC50 [2]
N#Cc1c(N)ncnc1N1CCC(c2nc(-c3cnc(F)c(Cl)c3)cn2CCN2CCC2)CC1 [Compound 205, 4-Amino-6-{4-[1-(2-azetidin-1-yl-ethyl)-4-(5-chloro-6-fluoro-pyridin-3-yl)-1H-imidazol-2-yl]-piperidin-1-yl}-pyrimidine-5-carbonitrile] | 0.8 nM | 1.3 nM
N#Cc1c(N)ncnc1N1CCC(c2nc(-c3ccnc(F)c3)cn2CCN2CCC2)CC1 [Compound 206, 4-Amino-6-{4-[1-(2-azetidin-1-yl-ethyl)-4-(2-fluoro-pyridin-4-yl)-1H-imidazol-2-yl]-piperidin-1-yl}-pyrimidine-5-carbonitrile] | 2.4 nM | 13 nM
N#Cc1c(N)ncnc1N1CCC(c2nc(-c3ccc4[nH]ncc4c3)cn2CCN2CCC2)CC1 [Compound 207, 4-Amino-6-{4-[1-(2-azetidin-1-yl-ethyl)-4-(1H-indazol-5-yl)-1H-imidazol-2-yl]-piperidin-1-yl}-pyrimidine-5-carbonitrile] | 22 nM | 105 nM
CCc1c(N)ncnc1N1CCC(c2nc(-c3ccc(F)c(C(F)(F)F)c3)cn2CCN2CCCC2)CC1 [Compound 208] | 3.2 nM | 7.6 nM
Nc1ncnc(N2CCC(c3nc(-c4ccc(F)c(C(F)(F)F)c4)cn3CCN3CCCC3)CC2)c1Cl [Compound 209] | 3.1 nM | 2.2 nM
Nc1ncnc(N2CCC(c3nc(-c4ccc(O)c(C(F)(F)F)c4)cn3CCN3CCCC3)CC2)c1Cl [Compound 210] | 3.7 nM | 3 nM
Nc1ncnc(N2CCC(c3nc(-c4ccc(F)c(C(F)(F)F)c4)cn3CCN3CCCC3)CC2)c1F [Compound 211] | 23 nM | 23 nM
C=C(C)c1c(N)ncnc1N1CCC(c2nc(-c3ccc(F)c(C(F)(F)F)c3)cn2CCN2CCCCC2)CC1 [Compound 212] | 6.7 nM | 16 nM
C=C(C)c1c(N)ncnc1N1CCC(c2nc(-c3ccc(F)c(C(F)(F)F)c3)cn2CCN2CCCC2)CC1 [Compound 213] | 7.9 nM | 20 nM
Nc1cc(N2CCC(c3nc(-c4ccc(F)c(C(F)(F)F)c4)cn3CCN3CCCC3)CC2)ncn1 [Compound 214] | 50 nM | 180 nM
Cc1c(N)ncnc1N1CCC(c2nc(-c3ccc(F)c(C(F)(F)F)c3)cn2CCN2CCCC2)CC1 [Compound 215] | 6.1 nM | 10 nM
Nc1ncnc(N2CCC(c3nc(-c4ccc(F)c(C(F)(F)F)c4)cn3CCN3CCCCC3)CC2)c1Cl [Compound 216] | 3.8 nM | 9 nM
Nc1ncnc(N2CCC(c3nc(-c4ccc(F)c(C(F)(F)F)c4)cn3CCN3CCC3)CC2)c1Br [Compound 217] | 1.5 nM | 2.3 nM
Nc1ncnc(N2CCC(c3nc(-c4ccc(F)c(C(F)(F)F)c4)cn3CCN3CCC3)CC2)c1Cl [Compound 218] | 0.6 nM | 1 nM
Nc1ncnc(N2CCC(c3nc(-c4ccc(F)c(C(F)(F)F)c4)cn3CCN3CCC3)CC2)c1-c1ccc(F)cc1 [Compound 219] | 2.4 nM | 2.3 nM
C=Cc1c(N)ncnc1N1CCC(c2nc(-c3ccc(F)c(C(F)(F)F)c3)cn2CCN2CCC2)CC1 [Compound 220] | 2.6 nM | 4.2 nM
Nc1cc(N2CCC(c3nc(-c4ccc(F)c(C(F)(F)F)c4)cn3CCN3CCC3)CC2)ncn1 [Compound 221] | 21 nM | 71 nM
COC(=O)c1ccc(-c2c(N)ncnc2N2CCC(c3nc(-c4ccc(F)c(C(F)(F)F)c4)cn3CCN3CCC3)CC2)cc1 [Compound 222] | 11 nM | 43 nM
COC(=O)c1ccc(-c2c(N)ncnc2N2CCC(c3nc(-c4ccc(F)c(C(F)(F)F)c4)cn3CCN3CCCC3)CC2)cc1 [Compound 223] | 21 nM | 78 nM
